# Measured values published in EP4467141A1, “PYRAZOLO-QUINOLINES AS SELECTIVE INHIBITORS OF GENOTOXIC STRESS-INDUCED IKK/NF- KB PATHWAYS FOR CANCER THERAPY” (Max-Delbrück-Centrum für Molekulare Medizin in der …, priority 2023, dated 2024).
# What was measured:
# Test in all cases: Kinase panel study
# Type in all cases: biochemical
# Conditions in all cases: read-out: Percentage of inhibition; for inhibition at 1 µM: 1000nM; for inhibition at 10 µM: 10000nM
# KIT V559D V654A = molecular target: T1, KIT V559D V654A (Homo sapiens, UniProt P10721, V559D/V654A)
# T1 construct: purchased Thermo Fisher Scientific
# T1 sequence (P10721 26-976 V559D/V654A): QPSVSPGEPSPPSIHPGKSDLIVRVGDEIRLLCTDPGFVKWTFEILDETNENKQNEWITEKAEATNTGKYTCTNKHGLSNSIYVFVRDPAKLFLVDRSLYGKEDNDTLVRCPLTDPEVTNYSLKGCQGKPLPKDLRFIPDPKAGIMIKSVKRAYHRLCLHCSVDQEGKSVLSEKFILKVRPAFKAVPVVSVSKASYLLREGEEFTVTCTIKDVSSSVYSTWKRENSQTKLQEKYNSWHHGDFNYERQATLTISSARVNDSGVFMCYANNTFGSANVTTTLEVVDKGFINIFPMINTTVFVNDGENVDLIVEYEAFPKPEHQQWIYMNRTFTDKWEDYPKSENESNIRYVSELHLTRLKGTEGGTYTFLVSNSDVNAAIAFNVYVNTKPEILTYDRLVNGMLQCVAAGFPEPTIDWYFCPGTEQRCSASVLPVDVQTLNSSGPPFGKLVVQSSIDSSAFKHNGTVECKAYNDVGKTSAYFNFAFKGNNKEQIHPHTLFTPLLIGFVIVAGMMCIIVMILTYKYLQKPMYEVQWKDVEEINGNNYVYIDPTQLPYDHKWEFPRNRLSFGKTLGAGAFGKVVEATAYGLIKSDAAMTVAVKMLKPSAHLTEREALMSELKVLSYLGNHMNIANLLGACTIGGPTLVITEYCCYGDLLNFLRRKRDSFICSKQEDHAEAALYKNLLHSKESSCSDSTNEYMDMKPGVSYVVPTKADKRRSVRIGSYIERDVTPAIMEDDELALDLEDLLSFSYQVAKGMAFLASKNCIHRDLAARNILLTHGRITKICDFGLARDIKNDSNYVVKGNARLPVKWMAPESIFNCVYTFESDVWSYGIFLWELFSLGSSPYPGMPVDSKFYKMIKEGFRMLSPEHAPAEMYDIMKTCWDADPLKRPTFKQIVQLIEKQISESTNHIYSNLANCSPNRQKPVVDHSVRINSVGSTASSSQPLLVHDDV
# How it was run: (§1)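 A commercial kinase profiling service ran the assays according to its ZLyte or Adapta standard protocols. Compound was present at 10 µM or 1 µM, and kinase activity loss was expressed as percent inhibition.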
# CDK6/cyclin D1 = molecular target: T2, CDK6/cyclin D1 (Homo sapiens, UniProt Q00534)
# T2 construct: purchased Thermo Fisher Scientific
# T2 sequence (Q00534 whole entry): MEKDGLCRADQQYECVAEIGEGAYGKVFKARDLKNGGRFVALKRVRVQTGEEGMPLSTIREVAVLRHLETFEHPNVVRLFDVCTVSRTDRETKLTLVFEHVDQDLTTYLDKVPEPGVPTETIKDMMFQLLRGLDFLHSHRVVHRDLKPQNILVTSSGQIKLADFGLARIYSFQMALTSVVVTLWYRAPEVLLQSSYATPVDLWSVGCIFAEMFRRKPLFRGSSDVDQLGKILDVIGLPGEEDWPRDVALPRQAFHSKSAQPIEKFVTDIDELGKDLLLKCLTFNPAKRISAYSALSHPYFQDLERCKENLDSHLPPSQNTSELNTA
# T2 sequence (P24385 whole entry partner): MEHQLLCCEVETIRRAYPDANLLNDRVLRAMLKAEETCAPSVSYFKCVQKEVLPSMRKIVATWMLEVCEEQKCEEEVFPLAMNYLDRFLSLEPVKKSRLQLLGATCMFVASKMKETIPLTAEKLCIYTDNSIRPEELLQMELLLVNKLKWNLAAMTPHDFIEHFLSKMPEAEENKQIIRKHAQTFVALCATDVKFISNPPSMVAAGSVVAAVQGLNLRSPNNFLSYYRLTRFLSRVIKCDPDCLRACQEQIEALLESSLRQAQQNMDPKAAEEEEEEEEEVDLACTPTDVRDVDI
# How it was run: as §1
# ITK = molecular target: T3, ITK (Homo sapiens, UniProt Q08881)
# T3 construct: purchased Thermo Fisher Scientific
# T3 sequence (Q08881 1-620): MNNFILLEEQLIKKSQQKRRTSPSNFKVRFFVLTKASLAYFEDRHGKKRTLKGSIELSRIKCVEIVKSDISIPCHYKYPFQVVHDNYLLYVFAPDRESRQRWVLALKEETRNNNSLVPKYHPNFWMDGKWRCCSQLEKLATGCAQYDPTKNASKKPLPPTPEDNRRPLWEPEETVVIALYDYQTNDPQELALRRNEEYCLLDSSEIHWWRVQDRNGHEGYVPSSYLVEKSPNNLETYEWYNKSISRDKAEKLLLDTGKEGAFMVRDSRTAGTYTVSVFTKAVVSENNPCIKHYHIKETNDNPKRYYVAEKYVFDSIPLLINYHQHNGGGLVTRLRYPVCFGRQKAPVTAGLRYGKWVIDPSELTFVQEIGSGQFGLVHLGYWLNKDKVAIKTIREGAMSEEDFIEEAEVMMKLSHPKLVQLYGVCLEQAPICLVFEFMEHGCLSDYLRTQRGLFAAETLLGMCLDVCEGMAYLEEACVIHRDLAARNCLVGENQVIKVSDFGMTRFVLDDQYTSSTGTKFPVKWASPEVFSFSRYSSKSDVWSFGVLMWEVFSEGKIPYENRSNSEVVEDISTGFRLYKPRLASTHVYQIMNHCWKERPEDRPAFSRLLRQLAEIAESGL
# How it was run: as §1
# SPHK1 = molecular target: T4, SPHK1 (Homo sapiens, UniProt Q9NYA1)
# T4 construct: purchased Thermo Fisher Scientific
# T4 sequence (Q9NYA1 whole entry): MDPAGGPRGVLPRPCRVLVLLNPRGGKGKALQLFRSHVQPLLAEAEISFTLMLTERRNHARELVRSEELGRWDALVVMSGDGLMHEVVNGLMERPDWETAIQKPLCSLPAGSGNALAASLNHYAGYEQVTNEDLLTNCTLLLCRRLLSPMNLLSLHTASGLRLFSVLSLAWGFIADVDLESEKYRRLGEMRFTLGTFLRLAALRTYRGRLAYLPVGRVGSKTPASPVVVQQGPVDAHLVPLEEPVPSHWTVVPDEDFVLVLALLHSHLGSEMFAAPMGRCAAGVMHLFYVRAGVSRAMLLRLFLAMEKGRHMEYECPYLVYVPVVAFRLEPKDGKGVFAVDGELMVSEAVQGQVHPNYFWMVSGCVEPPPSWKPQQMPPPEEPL
# How it was run: as §1
# AXL = molecular target: T5, AXL (Homo sapiens, UniProt P30530)
# T5 construct: purchased Thermo Fisher Scientific
# T5 sequence (P30530 26-894): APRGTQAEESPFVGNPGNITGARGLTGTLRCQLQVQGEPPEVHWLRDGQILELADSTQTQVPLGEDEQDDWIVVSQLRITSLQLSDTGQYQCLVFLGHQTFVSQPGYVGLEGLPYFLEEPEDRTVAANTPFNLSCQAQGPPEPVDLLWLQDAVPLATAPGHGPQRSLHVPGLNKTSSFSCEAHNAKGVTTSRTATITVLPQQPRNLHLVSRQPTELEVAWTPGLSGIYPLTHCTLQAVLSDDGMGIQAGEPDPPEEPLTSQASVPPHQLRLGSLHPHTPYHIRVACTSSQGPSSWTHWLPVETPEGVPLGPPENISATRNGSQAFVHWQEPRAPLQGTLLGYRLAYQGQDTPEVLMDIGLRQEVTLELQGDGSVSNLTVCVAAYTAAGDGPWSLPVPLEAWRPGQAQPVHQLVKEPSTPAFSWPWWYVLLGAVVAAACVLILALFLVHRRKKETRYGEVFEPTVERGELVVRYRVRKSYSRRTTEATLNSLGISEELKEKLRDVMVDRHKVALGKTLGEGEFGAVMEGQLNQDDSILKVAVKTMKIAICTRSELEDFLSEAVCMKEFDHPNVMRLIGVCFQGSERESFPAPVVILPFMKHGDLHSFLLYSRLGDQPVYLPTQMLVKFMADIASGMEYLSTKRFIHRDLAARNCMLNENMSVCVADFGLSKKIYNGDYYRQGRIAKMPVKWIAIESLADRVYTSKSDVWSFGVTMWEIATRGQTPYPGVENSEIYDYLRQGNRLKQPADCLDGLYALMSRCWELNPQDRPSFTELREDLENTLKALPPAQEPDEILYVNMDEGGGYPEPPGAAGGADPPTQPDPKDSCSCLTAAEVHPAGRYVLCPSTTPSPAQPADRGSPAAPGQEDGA
# How it was run: as §1
SMILES,inhibition at 1 µM (KIT V559D V654A),inhibition at 10 µM (KIT V559D V654A),inhibition at 1 µM (CDK6/cyclin D1),inhibition at 10 µM (CDK6/cyclin D1),inhibition at 1 µM (ITK),inhibition at 10 µM (ITK),inhibition at 1 µM (SPHK1),inhibition at 10 µM (SPHK1),inhibition at 1 µM (AXL),inhibition at 10 µM (AXL)
"COc1ccc2cc3c(N)nn(C(=O)c4cccc(N(C)C)c4)c3nc2c1 [MW05, (3-Amino-7-methoxypyrazolo[3,4-b]quinolin-1-yl)-[3-(dimethylamino)phenyl]methanone]",-16%,-37%,2%,0%,-10%,-6%,-2%,1%,4%,-8%
"COc1ccc2c(c1OC)c(=O)n1c3ccc(O)cc3c3ccnc2c31 [MW01, 5-Hydroxy-10,11-dimethoxy-9H-benzo[c]indolo[3,2,1-ij][1,5]naphthyridin-9-one]",-10%,-12%,1%,-8%,0%,-2%,-7%,-3%,51%,80%
